# Measurements taken from US8481738B2, “Gonadotropin-releasing hormone receptor antagonists and methods relating thereto” (Neurocrine Biosciences, Inc., priority 2007, dated 2013).
# Biological target: T1, human GnRH receptor (Homo sapiens, UniProt P30968)
# T1 construct: expressed in transfected cells; host or cells: RBL cells, stably transfected (in general)
# T1 sequence (P30968 1-328): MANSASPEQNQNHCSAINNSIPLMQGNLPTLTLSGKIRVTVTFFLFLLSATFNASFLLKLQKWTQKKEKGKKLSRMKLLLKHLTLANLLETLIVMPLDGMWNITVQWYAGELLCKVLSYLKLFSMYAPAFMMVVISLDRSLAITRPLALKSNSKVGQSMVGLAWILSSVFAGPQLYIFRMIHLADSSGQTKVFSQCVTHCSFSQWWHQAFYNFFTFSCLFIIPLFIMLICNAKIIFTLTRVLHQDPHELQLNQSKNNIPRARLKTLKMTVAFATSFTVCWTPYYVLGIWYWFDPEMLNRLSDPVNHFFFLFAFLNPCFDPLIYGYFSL
# Assay: Peptide competition radioligand binding displacement assay, human GnRH receptor membranes
# Conditions: one or more of the peptide competition human receptor binding assays
# Outline: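 Membranes for radioligand binding were prepared from RBL cells stably expressing human GnRH receptor, which were lysed by nitrogen cavitation at 900 psi, 4° C. Membranes from HEK293 cells stably transfected with human receptor were held in 10 mM HEPES pH 7.5, 150 mM NaCl, 0.1% BSA. Transiently transfected COS-7 cells were used for other species.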
row,Ki,Structure (SMILES)
1,≤ 100 nM,COc1ccccc1N(C)C(=O)c1cc(-c2cnc(C(F)(F)F)cc2C#N)c(Cl)cc1OCCn1ccnc1 [42-3]
2,≤ 100 nM,COc1ccccc1N(C)C(=O)c1cc(-c2cnc(C(F)(F)F)cc2C#N)c(Cl)cc1OCCc1ccccn1 [42-4]
3,≤ 100 nM,COc1ccccc1N(C)C(=O)c1cc(-c2cnc(C(F)(F)F)cc2C#N)c(Cl)cc1OCCCc1ccccn1 [42-6]
4,≤ 100 nM,COc1ccccc1N(C)C(=O)c1cc(-c2cnc(C(F)(F)F)cc2C#N)c(Cl)cc1OCCCc1cn[nH]c1 [42-7]
5,≤ 100 nM,COc1ccccc1N(C)C(=O)c1cc(-c2cnc(C(F)(F)F)cc2C#N)c(Cl)cc1OCCOc1ccccn1 [42-8]
6,≤ 100 nM,COc1ccccc1N(C)C(=O)c1cc(-c2cnc(C(F)(F)F)cc2C#N)c(Cl)cc1OCCCc1ccncc1 [42-9]
7,≤ 100 nM,COc1ccccc1N(C)C(=O)c1cc(-c2cnc(C(F)(F)F)cc2C#N)c(Cl)cc1OCCCn1ccnc1 [42-11]
8,≤ 100 nM,COc1ccccc1N(C)C(=O)c1cc(-c2cnc(C(F)(F)F)cc2C#N)c(Cl)cc1OCCCn1cccn1 [42-12]
9,≤ 100 nM,COc1ccccc1N(C)C(=O)c1cc(-c2cnc(C(F)(F)F)cc2C#N)c(Cl)cc1OCCCn1cncn1 [42-13]
10,≤ 100 nM,COc1ccccc1N(C)C(=O)c1cc(-c2cnc(C(F)(F)F)cc2C#N)c(Cl)cc1OCCCc1ccn(C)n1 [42-14]
11,≤ 100 nM,COc1ccccc1N(C)C(=O)c1cc(-c2cnc(C(F)(F)F)cc2C#N)c(Cl)cc1OCCN [42-16]
12,≤ 100 nM,CNCCOc1cc(Cl)c(-c2cnc(C(F)(F)F)cc2C#N)cc1C(=O)N(C)c1ccccc1OC [42-17]
13,≤ 100 nM,"COc1ccccc1N(C)C(=O)c1cc(-c2cnc(C(F)(F)F)cc2C#N)c(Cl)cc1OCCCc1cnoc1 [46-1, 4-Chloro-5-(4-cyano-6-trifluoromethyl-pyridin-3-yl)-2-(3-isoxazol-4-yl-propoxy)-N-(2-methoxyphenyl)-N-methyl-benzamide]"
14,≤ 100 nM,COc1ccccc1N(C)C(=O)c1cc(-c2cnc(C(F)(F)F)cc2C#N)c(Cl)cc1OCCc1cnccn1 [46-3]

# Continued, compound first:
row,Structure (SMILES),Ki
1,"COc1ccccc1N(C)C(=O)c1cc(-c2cnc(C(F)(F)F)cc2C#N)c(Cl)cc1OCCN1CCCC1=O [42-1, 4-Chloro-5-(4-cyano-6-trifluoromethyl-pyridin-3-yl)-N-(2-methoxy-phenyl)-N-methyl-2-[2-(2-oxo-pyrrolidin-1-yl)-ethoxy]-benzamide]",≤ 100 nM
2,COc1ccccc1N(C)C(=O)c1cc(-c2cnc(C(F)(F)F)cc2C#N)c(Cl)cc1OCCN1CCOCC1 [42-2],≤ 100 nM
3,COc1ccccc1N(C)C(=O)c1cc(-c2cnc(C(F)(F)F)cc2C#N)c(Cl)cc1OCCCn1cccc1 [42-10],≤ 100 nM
4,COc1ccccc1N(C)C(=O)c1cc(-c2cnc(C(F)(F)F)cc2C#N)c(Cl)cc1OCCCOc1ccccn1 [42-15],≤ 100 nM
5,COc1ccccc1N(C)C(=O)c1cc(-c2cnc(C(F)(F)F)cc2C#N)c(Cl)cc1OCC(N)CO (centres unmarked) [42-18],≤ 100 nM
6,"CCOC(=O)CCCOc1cc(Cl)c(-c2cnc(C(F)(F)F)cc2C#N)cc1C(=O)N(C)c1ccccc1OC [43-1, 4-{5-Chloro-4-(4-cyano-6-trifluoromethyl-pyridin-3-yl)-2-[(2-methoxy-phenyl)-methyl-carbamoyl]-phenoxy}-butyric acid ethyl ester]",≤ 100 nM
7,"COc1ccccc1N(C)C(=O)c1cc(-c2cnc(C(F)(F)F)cc2C#N)c(Cl)cc1CC(=O)O [44-1, {5-Chloro-4-(4-cyano-6-trifluoromethyl-pyridin-3-yl)-2-[(2-methoxy-phenyl)-methyl-carbamoyl]-phenyl}-acetic acid]",≤ 100 nM
8,"CN(C(=O)c1ccc(Cl)c(-c2cnc(C(F)(F)F)cc2C#N)c1)c1ccccc1OCCc1nnn[nH]1 [45-1, 4-Chloro-3-(4-cyano-6-trifluoromethyl-pyridin-3-yl)-N-methyl-N-{2-[2-(1H-tetrazol-5-yl)-ethoxy]-phenyl}-benzamide]",≤ 100 nM
9,COc1ccccc1CCOc1cc(Cl)c(-c2cnc(C(F)(F)F)cc2C#N)cc1C(=O)N(C)c1ccccc1OC [46-2],≤ 100 nM
10,COc1ccccc1N(C)C(=O)c1cc(-c2cnc(C(F)(F)F)cc2C#N)c(Cl)cc1OCCCN1C(=O)c2ccccc2C1=O [46-4],≤ 100 nM
11,"COc1ccccc1N(C)C(=O)c1cc(-c2cnc(C(F)(F)F)cc2C#N)c(Cl)cc1OCCNC(C)=O [47-1, 2-(2-Acetylamino-ethoxy)-4-chloro-5-(4-cyano-6-trifluoromethyl-pyridin-3-yl)-N-(2-methoxy-phenyl)-N-methyl-benzamide]",≤ 100 nM
12,COc1ccccc1N(C)C(=O)c1cc(-c2cnc(C(F)(F)F)cc2C#N)c(Cl)cc1OCCN(C)C(C)=O [47-2],≤ 100 nM
13,COc1ccccc1N(C)C(=O)c1cc(-c2cnc(C(F)(F)F)cc2C#N)c(Cl)cc1OCCCNC(C)=O [47-3],≤ 100 nM
14,COc1ccccc1N(C)C(=O)c1cc(-c2cnc(C(F)(F)F)cc2C#N)c(Cl)cc1OCCNC(=O)C(F)(F)F [47-4],≤ 100 nM
15,COc1ccccc1N(C)C(=O)c1cc(-c2cnc(C(F)(F)F)cc2C#N)c(Cl)cc1OCCN(C)C(=O)C(F)(F)F [47-5],≤ 100 nM
16,"COc1ccccc1N(C)C(=O)c1cc(-c2cnc(C(F)(F)F)cc2C#N)c(Cl)cc1OCCNS(C)(=O)=O [48-1, 4-Chloro-5-(4-cyano-6-trifluoromethyl-pyridin-3-yl)-2-(2-methanesulfonylamino-ethoxy)-N-(2-methoxy-phenyl)-N-methyl-benzamide]",≤ 100 nM
17,"COc1ccccc1N(C)C(=O)c1cc(-c2cnc(C(F)(F)F)cc2C#N)c(Cl)cc1OCCN(C)S(C)(=O)=O [48-2, 4-Chloro-5-(4-cyano-6-trifluoromethyl-pyridin-3-yl)-2-[2-(methanesulfonyl-methyl-amino)-ethoxy]-N-(2-methoxy-phenyl)-N-methyl-benzamide]",≤ 100 nM
18,"COc1ccccc1N(C)C(=O)c1cc(-c2cnc(C(F)(F)F)cc2C#N)c(Cl)cc1OCCCN1CCC[C@H]1C(=O)O [49-1, (S)-1-(3-{5-Chloro-4-(4-cyano-6-trifluoromethyl-pyridin-3-yl)-2-[(2-methoxy-phenyl)-methyl-carbamoyl]-phenoxy}-propyl)-pyrrolidine-2-carboxylic acid]",≤ 100 nM
19,COc1ccccc1N(C)C(=O)c1cc(-c2cnc(C(F)(F)F)cc2C#N)c(Cl)cc1OCCN1CCC[C@@H]1C(=O)O [49-2],≤ 100 nM
20,COc1ccccc1N(C)C(=O)c1cc(-c2cnc(C(F)(F)F)cc2C#N)c(Cl)cc1OCCN1CCC[C@H]1C(=O)O [49-3],≤ 100 nM
21,"CN(C(=O)c1ccc(Cl)c(-c2cnc(C(F)(F)F)cc2C#N)c1)c1ccccc1OCCCN1CCC[C@H]1C(=O)O [50-1, (S)-1-[3-(2-{[4-Chloro-3-(4-cyano-6-trifluoromethyl-pyridin-3-yl)-benzoyl]-methyl-amino}-phenoxy)-propyl]-pyrrolidine-2-carboxylic acid]",≤ 100 nM
22,CN(C(=O)c1ccc(Cl)c(-c2cnc(C(F)(F)F)cc2C#N)c1)c1ccccc1OCCN1CCC[C@@H]1C(=O)O [50-2],≤ 100 nM
23,CN(C(=O)c1ccc(Cl)c(-c2cnc(C(F)(F)F)cc2C#N)c1)c1ccccc1OCCN1CCC[C@H]1C(=O)O [50-3],≤ 100 nM
24,"CN(C(=O)c1ccc(Cl)c(-c2cnc(C(F)(F)F)cc2C#N)c1)c1ccccc1OCCOc1ccccn1 [51-1, 4-Chloro-3-(4-cyano-6-trifluoromethyl-pyridin-3-yl)-N-methyl-N-{2-[2-(pyridin-2-yloxy)-ethoxy]-phenyl}-benzamide]",≤ 100 nM
25,"CN(C(=O)c1ccc(Cl)c(-c2cnc(C(F)(F)F)cc2C#N)c1)c1ccccc1OCC(C)(C)C(=O)O [52-1, 3-(2-{[4-Chloro-3-(4-cyano-6-trifluoromethyl-pyridin-3-yl)-benzoyl]-methyl-amino}-phenoxy)-2,2-dimethyl-propionic acid]",≤ 100 nM
26,"CN(C(=O)c1ccc(Cl)c(-c2cnc(C(F)(F)F)cc2C#N)c1)c1ccccc1OCCC(=O)NCCN [53-1, N-{2-[2-(2-Amino-ethylcarbamoyl)-ethoxy]-phenyl}-4-chloro-3-(4-cyano-6-trifluoromethyl-pyridin-3-yl)-N-methylbenzamide]",≤ 100 nM
27,"CN(C(=O)c1ccc(Cl)c(-c2cnc(C(F)(F)F)cc2C#N)c1)c1ccccc1OCCC(=O)N1CCNCC1 [53-2, 4-Chloro-3-(4-cyano-6-trifluoromethyl-pyridin-3-yl)-N-methyl-N-[2-(3-oxo-3-piperazin-1-yl-propoxy)-phenyl]-benzamide]",≤ 100 nM
